Results taken from patent publication US7119217B2, “Tri(alkylcarboxylato)gallium (III) products and pharmaceutical compositions containing them” (Genta Incorporated, priority 2002, dated 2006).

How the values were obtained:
Caco-2 monolayer cells = assay: Caco-2 apical to basolateral (A to B) absorption/transport assay; conditions: for % Absorbed: Caco-2 monolayer, 37° C., 5% CO2; for % Absorbed / Trsp: apical to basolateral, 2 hours incubation; for Trsp: Caco-2 transport rate; for Ratio (Caco-2 transport ratio): ratio of the transport rate to the transport rate of the reference compound mannitol
Source text: (§1) Values for Caco-2 transport are also expressed herein as transport ratios that represent the ratio of the transport rate for the proband (e.g. tri(alkylcarboxylato) gallium(III) compound) to the transport rate of a reference compound. Mannitol was the reference compound used in the calculation of the Caco-2 transport ratios discussed herein.
(§2) The evaluation protocol of the apical to basolateral (A to B) absorption of a test article in Caco-2 monolayer cells is known to those of skill in the art as follows.
(§3) Caco-2 cells are plated in individual Transwells® in 24-well tissue culture plates and cultured for 3 days to establish the cultures. After 3 days, the cells are tested for transepithelial electrical resistance (TEER) as a measure of the formation of tight junctions between cells. Only cells with a TEER equal to or greater than about 330 Ω·cm^2 cm^2 are used. The proband or the control article (reference) is applied to the apical side of Caco-2 cells and incubated for 2 hours (37° C., 5% CO2). At t=2 hr, the media in each well are collected and stored until later analysis. Aliquots of the dosing solution are retained for analysis along with the samples.
(§4) For test samples, the analysis is repeated three times while the N value for all the control groups is six. The controls are [^3H]propranolol for fast transport and [^3H]mannitol for slow transport.
(§5) The gallium product proband and dosing solution samples are analyzed by inductive coupled plasma optical emission spectrometry (ICP-OCP) to measure gallium concentration. Any non-gallium test articles and dosing solution samples are analyzed by HPLC. Positive controls are analyzed using scintillation counting.

[1] = as above; conditions: human, Caco-2
Source text: as §1, §2, §3, §4, §5

Compound	% Absorbed (Caco-2 monolayer cells) [%]	Trsp (Caco-2 monolayer cells) [nm/s]	Ratio (Caco-2 transport ratio) (Caco-2 monolayer cells)	Papp A→B at 2 h [1] [×10⁻⁶ cm/s]
Tri(palmitato) Gallium (III) Product [Example 3]	31.579	137.060	12.1	–
Tri(palmitato) Gallium (III) Product [Example 2]	72.000	312.500	27.7	–
OC[C@@H](O)[C@@H](O)[C@H](O)[C@H](O)CO [Mannitol]	2.603	–	1	1.13
CC(C)NCC(O)COc1cccc2ccccc12 (stereo not drawn) [Propranalol]	24.118	104.679	9.3	–
Tri(octanoato) Gallium (III) Product [Example 1]	9.890	42.930	3.8	–
Cc1occc(=O)c1[O-].Cc1occc(=O)c1[O-].Cc1occc(=O)c1[O-].[Ga+3] [Gallium Maltolate]	24.793	107.610	9.5	–
